Experimental findings from patent US20250144067A1, “PERSONALIZED STARVATION THERAPY FOR CANCER” (Faeth Therapeutics, Inc., priority 2021, published 2025) are described below.

Counter-ions that a name gives are not always drawn.

For test [1], the system named is NCI-H292 lung cancer cells. Description: FDA drug screening, complete media vs cholesterol-free media without statin (TABLE 1). The format is cell-based, human.
In test [2] the test system is NCI-H292 lung cancer cells. Description: FDA drug screening, complete media vs cholesterol-free media with simvastatin (TABLE 2). It is filed as cell-based, human. The conditions noted are these: for Cholesterol-free media + simvastatin (0.04 μM) / Complete Media: NCI-H292 cells.
[3] abbreviates: NCI-H292 cells, cholesterol-free media without statin, FDA drug library screen.
The mark [4] stands for this setting: complete vs cholesterol-free media, >0 enhanced anti-cancer activity, about 0 neutral, <0 antagonist.
Setting [5] is: complete vs cholesterol-free media, greater than 0 enhanced anti-cancer activity, about 0 neutral, below 0 antagonists.
Where [6] appears, read: cholesterol-free media with simvastatin 0.04 μM, cell growth value in FDA drug screen.
[7] abbreviates: complete media minus cholesterol-free media + simvastatin, >0 enhanced anti-cancer activity, about 0 neutral, <0 antagonist.
Setting [8] is: Complete minus Cholesterol-free, greater than 0 enhanced anti-cancer activity, about 0 neutral, below 0 antagonists.
Where [9] appears, read: NCI-H292 cells in cholesterol-free media without statin.
Setting [10] is: NCI-H292 cells in complete media.
The mark [11] stands for this setting: drug in cholesterol-free media with simvastatin 0.04 μM.
The mark [12] stands for this setting: complete media vs cholesterol-free media + simvastatin (0.04 μM), >0 enhanced anti-cancer activity, about 0 neutral, <0 antagonist.
Where [13] appears, read: NCI-H292 cells, cholesterol-free media without statin.
The mark [14] stands for this setting: FDA drug library screen, cholesterol-free media with simvastatin 0.04 μM.
Where [15] appears, read: FDA drug library screen, complete media.
Where [16] appears, read: Complete minus Cholesterol-free, >0 enhanced anti-cancer activity, about 0 neutral, <0 antagonist.
The mark [17] stands for this setting: NCI-H292 cells, complete media, FDA drug library screen.
[18] abbreviates: complete media, cell growth value in FDA drug screen.

As to `OC(CNCC(O)C1CCc2cc(F)ccc2O1)C1CCc2cc(F)ccc2O1` (stereo not drawn) [Nebivolol (hydrochloride)], the Cholesterol-free in test [1] (setting [3]) is recorded as 0.567. Moreover, the Difference is 0.61 in test [1] (setting [4]) and −0.02 in test [2] (complete media minus cholesterol-free media + simvastatin (0.04 μM), >0 enhanced anti-cancer activity, about 0 neutral, <0 antagonist). Moreover, the “Cholesterol-free media + simvastatin (0.04 μM)” value in test [2] (cholesterol-free media with simvastatin 0.04 μM, FDA drug library screen (TABLE 2)) is reported as 0.9013. In addition, the “Complete Media” value in test [2] (complete media, FDA drug library screen (TABLE 2)) is 0.8774.

The compound `Cc1cnc(NC(=O)C2=C(O)c3ccccc3S(=O)(=O)N2C)s1` [Meloxicam] had a Complete in test [1] (NCI-H292 cells, complete media) of 0.7862. For the same compound, the results for the Difference in test [1] (setting [5]) and in test [2] (setting [7]) were −0.39 and 0.12, respectively. Further, the “Cholesterol-free media + simvastatin (0.04 μM)” value in test [2] (setting [6]) was 1.111.

Turning to `O=C1CCC(N2C(=O)c3ccccc3C2=O)C(=O)N1` (stereo not drawn) [Thalidomide], the results for the Difference in test [1] (setting [8]) and in test [2] (setting [12]) were −0.92 and −0.17, respectively. In addition, the Cholesterol-free in test [1] (setting [9]) was determined as 1.865. The compound also gave a Complete in test [1] (setting [10]) of 0.9496. Also, the “Cholesterol-free media + simvastatin (0.04 μM)” value in test [2] (setting [11]) is given as 1.184. In test [2] (drug in complete media), the “Complete Media” value worked out at 1.013.

Compound Kanamycin (sulfate) displayed a Cholesterol-free in test [1] (setting [13]) of 1.851. In test [1] (NCI-H292 cells, complete media), this compound yielded a Complete of 1.486. Also, the Difference in test [1] (complete vs cholesterol-free media, […]) is on record as −0.36; in test [2] (complete media vs cholesterol-free media + simvastatin (0.04 μM), […]), −0.12. Also, in test [2] (setting [14]), the “Cholesterol-free media + simvastatin (0.04 μM)” value was found to be 1.825. Moreover, the “Complete Media” value in test [2] (setting [15]) was 1.703.

On to `COc1ccc(CN2CCNCC2)c(OC)c1OC` [Trimetazidine (dihydrochloride)], for which the Difference in test [1] (setting [16]) is reported as −0.30; in test [2] (setting [12]), −0.18. The compound further showed a Cholesterol-free in test [1] (setting [13]) of 1.134. The compound further returned a Complete in test [1] (NCI-H292 cells, complete media) of 0.836. The “Cholesterol-free media + simvastatin (0.04 μM)” value in test [2] (setting [11]) is 1.296. Further, the “Complete Media” value in test [2] (drug in complete media) is 1.112.

For `CC(C)N(CCCCOCC(=O)NS(C)(=O)=O)c1cnc(-c2ccccc2)c(-c2ccccc2)n1` [Selexipag], the Cholesterol-free in test [1] (setting [3]) came to 0.7206. Further, in test [1] (setting [17]), the Complete is given as 1.028. The values for the Difference in test [1] (setting [4]) and in test [2] (setting [7]) were 0.31 and 0.08, respectively. In addition, the “Cholesterol-free media + simvastatin (0.04 μM)” value in test [2] (setting [6]) is 0.9295. In addition, the “Complete Media” value in test [2] (setting [18]) came to 1.013.

Turning to `O=C(NC1CCNCC1)[C@@H]1CC[C@@H]2CN1C(=O)N2OS(=O)(=O)O` [Relebactam], the Difference in test [1] (setting [8]) was −0.59; in test [2] (setting [7]), 0.06. This compound had a Cholesterol-free in test [1] (setting [9]) of 1.438. Moreover, in test [1] (setting [10]), the Complete is given as 0.845. For the same compound, the “Cholesterol-free media + simvastatin (0.04 μM)” value in test [2] (setting [6]) is on record as 0.885. For the same compound, the “Complete Media” value in test [2] (setting [18]) is given as 0.9451.

In turn, `C[C@]12CC[C@@H]3c4ccc(OC(=O)c5ccccc5)cc4CC[C@H]3[C@@H]1CC[C@@H]2O` [Estradiol benzoate] gave a Cholesterol-free in test [1] (setting [13]) of 1.285. Also, the Complete in test [1] (NCI-H292 cells, complete media) is 0.9221. Besides, the Difference in test [1] (setting [5]) is given as −0.36; in test [2] (setting [12]) it was −0.25. Also, the “Cholesterol-free media + simvastatin (0.04 μM)” value in test [2] (setting [11]) is listed as 1.387. For the same compound, the “Complete Media” value in test [2] (drug in complete media) is recorded as 1.134.

`O=C1CN(/N=C/c2ccc([N+](=O)[O-])o2)C(=O)N1` [Nitrofurantoin]: the Difference in test [1] (Complete minus Cholesterol-free, greater than 0 enhanced anti-cancer activity, about 0 neutral, below 0 antagonist) is −0.16; in test [2] (setting [12]) it was −0.08. Also, the Cholesterol-free in test [1] (NCI-H292 cells, FDA drug library screen, cholesterol-free media without statin) came out at 1.115. This compound also yielded a Complete in test [1] (NCI-H292 cells, FDA drug library screen, complete media) of 0.9573. The “Cholesterol-free media + simvastatin (0.04 μM)” value in test [2] (setting [14]) came out at 0.848. For the same compound, the “Complete Media” value in test [2] (setting [15]) was 0.7708.

In the case of `Clc1ccc(C(c2ccccc2Cl)C(Cl)Cl)cc1` (stereo not drawn) [Mitotane], the values for the Difference in test [1] (setting [16]) and in test [2] (setting [12]) were −0.20 and −0.22, respectively. In addition, the Cholesterol-free in test [1] (setting [13]) is reported as 1.108. The same compound registered a Complete in test [1] (NCI-H292 cells, complete media) of 0.9109. The “Cholesterol-free media + simvastatin (0.04 μM)” value in test [2] (setting [11]) turned out to be 1.345. Besides, the “Complete Media” value in test [2] (drug in complete media) is recorded as 1.125.

Take Alimemazine hemitartrate: the figures for the Difference in test [1] (setting [16]) and in test [2] (setting [7]) were 0.05 and 0.34, respectively. For the same compound, the Cholesterol-free in test [1] (setting [3]) turned out to be 1.186. The Complete in test [1] (setting [17]) turned out to be 1.239. The “Cholesterol-free media + simvastatin (0.04 μM)” value in test [2] (setting [14]) is 0.9971. The “Complete Media” value in test [2] (setting [15]) is given as 1.335.
